Data reported in the NIST ThermoML archive (doi:10.1021/je500205z).
Numbers after ± are expanded uncertainties.

Legend:
[1] = Maximal bubble pressure
[2] = an = ratio of the nth substance listed; details: 293.15 K, Maximal bubble pressure

In the case of `C=Cn1cc[n+](C(C)C(=O)OCC)c1.[Cl-]` (configuration not stated), the surface tension liquid-gas ([1]; 293.15 K) is reported as 66.75 ± 0.77 mN/m, the surface tension liquid-gas ([1]; 298.15 K) is reported as 63.9 ± 0.74 mN/m and the surface tension liquid-gas ([1]; 303.15 K) is reported as 61.18 ± 0.71 mN/m. For the same compound, the surface tension liquid-gas ([1]; 308.15 K) was 58.46 ± 0.68 mN/m, the surface tension liquid-gas ([1]; 313.15 K) was 55.89 ± 0.65 mN/m and the surface tension liquid-gas ([1]; 318.15 K) was 53.02 ± 0.62 mN/m. For the same compound, the surface tension liquid-gas ([1]; 323.15 K) was 50.55 ± 0.59 mN/m, the surface tension liquid-gas ([1]; 328.15 K) was 48.14 ± 0.57 mN/m and the surface tension liquid-gas ([1]; 333.15 K) was 45.54 ± 0.54 mN/m.

`C=C[n+]1ccn(CCCCCCCCCC)c1.[Br-]` [1-decyl-3-ethenylimidazolium bromide] gave a surface tension liquid-gas ([1]; 293.15 K) of 53.48 ± 0.63 mN/m, a surface tension liquid-gas ([1]; 298.15 K) of 50.63 ± 0.6 mN/m and a surface tension liquid-gas ([1]; 303.15 K) of 47.76 ± 0.56 mN/m. For the same compound, the surface tension liquid-gas ([1]; 308.15 K) was 44.56 ± 0.53 mN/m, the surface tension liquid-gas ([1]; 313.15 K) was 41.8 ± 0.5 mN/m and the surface tension liquid-gas ([1]; 318.15 K) was 39.03 ± 0.47 mN/m. For the same compound, the surface tension liquid-gas ([1]; 323.15 K) was 36.2 ± 0.44 mN/m, the surface tension liquid-gas ([1]; 328.15 K) was 33.77 ± 0.41 mN/m and the surface tension liquid-gas ([1]; 333.15 K) was 32.04 ± 0.39 mN/m.

`C=C[n+]1ccn(CCCCCCCCCC)c1.[Br-]` [1-decyl-3-ethenylimidazolium bromide] + CC(C)=O showed a surface tension liquid-gas ([2]; a1 = 0.5403) of 23.39 ± 0.38 mN/m.

For `C=C[n+]1ccn(CCCCCCCCCC)c1.[Br-]` [1-decyl-3-ethenylimidazolium bromide] + CCO, the surface tension liquid-gas ([2]; a1 = 1.255) was 22.27 ± 0.36 mN/m.

`C=C[n+]1ccn(CCCCCCCCCC)c1.[Br-]` [1-decyl-3-ethenylimidazolium bromide] + ClC(Cl)Cl gave a surface tension liquid-gas ([2]; a1 = 0.7667) of 27 ± 0.43 mN/m.

For `C=C[n+]1ccn(CCCCCCCCCC)c1.[Br-]` [1-decyl-3-ethenylimidazolium bromide] + O, the surface tension liquid-gas ([2]; a1 = 3.263) was 35.27 ± 0.37 mN/m.

In the case of `C=C[n+]1ccn(CCCCCCCCCC)c1.[Br-]` [1-decyl-3-ethenylimidazolium bromide] + c1ccccc1, the surface tension liquid-gas ([2]; a1 = 0.1035) is reported as 29.08 ± 0.46 mN/m.

In the case of `C=Cn1cc[n+](CCCCCCCC)c1.[Br-]` [1-ethenyl-3-octylimidazolium bromide], the surface tension liquid-gas ([1]; 293.15 K) is reported as 59.74 ± 0.7 mN/m, the surface tension liquid-gas ([1]; 298.15 K) is reported as 56.82 ± 0.66 mN/m and the surface tension liquid-gas ([1]; 303.15 K) is reported as 54.04 ± 0.63 mN/m. It also gave a surface tension liquid-gas ([1]; 308.15 K) of 51.22 ± 0.6 mN/m, a surface tension liquid-gas ([1]; 313.15 K) of 48.55 ± 0.57 mN/m and a surface tension liquid-gas ([1]; 318.15 K) of 45.79 ± 0.54 mN/m. The surface tension liquid-gas ([1]; 323.15 K) was 43.18 ± 0.51 mN/m, the surface tension liquid-gas ([1]; 328.15 K) was 40.6 ± 0.49 mN/m and the surface tension liquid-gas ([1]; 333.15 K) was 38.24 ± 0.46 mN/m.

In the case of `C=Cn1cc[n+](CCCCCCCC)c1.[Br-]` [1-ethenyl-3-octylimidazolium bromide] + CC(C)=O, the surface tension liquid-gas ([2]; a1 = 0.5788) is reported as 23.94 ± 0.39 mN/m.

In the case of `C=Cn1cc[n+](CCCCCCCC)c1.[Br-]` [1-ethenyl-3-octylimidazolium bromide] + CCO, the surface tension liquid-gas ([2]; a1 = 1.497) is reported as 23.07 ± 0.37 mN/m.

In the case of `C=Cn1cc[n+](CCCCCCCC)c1.[Br-]` [1-ethenyl-3-octylimidazolium bromide] + ClC(Cl)Cl, the surface tension liquid-gas ([2]; a1 = 0.6921) is reported as 27.79 ± 0.44 mN/m.

Compound `C=Cn1cc[n+](CCCCCCCC)c1.[Br-]` [1-ethenyl-3-octylimidazolium bromide] + O has a surface tension liquid-gas ([2]; a1 = 4.059) of 38.86 ± 0.4 mN/m.

For `C=Cn1cc[n+](CCCCCCCC)c1.[Br-]` [1-ethenyl-3-octylimidazolium bromide] + c1ccccc1, the surface tension liquid-gas ([2]; a1 = 0.08467) was 29.32 ± 0.46 mN/m.

`C=Cn1cc[n+](CCCCC)c1.[Br-]` [1-ethenyl-3-pentylimidazolium bromide] showed a surface tension liquid-gas ([1]; 303.15 K) of 67.08 ± 0.78 mN/m, a surface tension liquid-gas ([1]; 308.15 K) of 64.11 ± 0.74 mN/m and a surface tension liquid-gas ([1]; 313.15 K) of 61.08 ± 0.71 mN/m. For the same compound, the surface tension liquid-gas ([1]; 318.15 K) was 58.28 ± 0.68 mN/m, the surface tension liquid-gas ([1]; 323.15 K) was 55.53 ± 0.65 mN/m and the surface tension liquid-gas ([1]; 328.15 K) was 53.24 ± 0.62 mN/m. The surface tension liquid-gas ([1]; 333.15 K) was 50.59 ± 0.59 mN/m.

In the case of `C=Cn1cc[n+](CCCCCC)c1.[Br-]` [3-hexyl-1-vinyl-1H-imidazol-3-ium bromide], the surface tension liquid-gas ([1]; 293.15 K) is reported as 62.29 ± 0.72 mN/m, the surface tension liquid-gas ([1]; 298.15 K) is reported as 59.52 ± 0.69 mN/m and the surface tension liquid-gas ([1]; 303.15 K) is reported as 56.81 ± 0.66 mN/m. For the same compound, the surface tension liquid-gas ([1]; 308.15 K) was 53.95 ± 0.63 mN/m, the surface tension liquid-gas ([1]; 313.15 K) was 51.15 ± 0.6 mN/m and the surface tension liquid-gas ([1]; 318.15 K) was 48.44 ± 0.57 mN/m. It also gave a surface tension liquid-gas ([1]; 323.15 K) of 45.67 ± 0.54 mN/m, a surface tension liquid-gas ([1]; 328.15 K) of 43.01 ± 0.51 mN/m and a surface tension liquid-gas ([1]; 333.15 K) of 40.4 ± 0.48 mN/m.

For `C=Cn1cc[n+](CCCCCC)c1.[Br-]` [3-hexyl-1-vinyl-1H-imidazol-3-ium bromide] + CC(C)=O, the surface tension liquid-gas ([2]; a1 = 0.6455) was 24.3 ± 0.39 mN/m.

For `C=Cn1cc[n+](CCCCCC)c1.[Br-]` [3-hexyl-1-vinyl-1H-imidazol-3-ium bromide] + CCO, the surface tension liquid-gas ([2]; a1 = 1.744) was 25.16 ± 0.4 mN/m.

In the case of `C=Cn1cc[n+](CCCCCC)c1.[Br-]` [3-hexyl-1-vinyl-1H-imidazol-3-ium bromide] + ClC(Cl)Cl, the surface tension liquid-gas ([2]; a1 = 0.5682) is reported as 27.94 ± 0.44 mN/m.

Work on `C=Cn1cc[n+](CCCCCC)c1.[Br-]` [3-hexyl-1-vinyl-1H-imidazol-3-ium bromide] + O yielded a surface tension liquid-gas ([2]; a1 = 5.388) of 46.87 ± 0.46 mN/m.

In the case of `C=Cn1cc[n+](CCCCCC)c1.[Br-]` [3-hexyl-1-vinyl-1H-imidazol-3-ium bromide] + c1ccccc1, the surface tension liquid-gas ([2]; a1 = 0.02207) is reported as 29.6 ± 0.46 mN/m.

`CC(C)=O` [acetone] gave a surface tension liquid-gas ([1]; 293.15 K) of 23.7 ± 0.43 mN/m.

Work on `c1ccccc1` [benzene] yielded a surface tension liquid-gas ([1]; 293.15 K) of 28.18 ± 0.5 mN/m.

For `CCO` [ethanol], the surface tension liquid-gas ([1]; 293.15 K) was 22.27 ± 0.41 mN/m.

`ClC(Cl)Cl` [trichloromethane] gave a surface tension liquid-gas ([1]; 293.15 K) of 27.14 ± 0.48 mN/m.
